Measured values: article PMC10436550, “Subacute toxicity evaluations of LPM3480392 in rats, a full µ-opioid receptor biased agonist” (Frontiers in Pharmacology, 2023)

Key:
[1] = test system: Sprague Dawley (SD) rats; test: Histopathology, 4-week subacute toxicity study; assay type: in vivo, rat; conditions: for Epididymis: Cell debris, lumen, Grade: 1 (minimal), animals / Epididymis: Cell debris, lumen, Grade: 3 (moderate), animals / Epididymis: Cell debris, lumen, Total Incidence / Epididymis: Sperm, decreased, lumen, Grade: 4 (marked), animals / Epididymis: Sperm, decreased, lumen, Total Incidence / Testis: Degeneration, tubule, Grade: 2 (mild), animals / Testis: Degeneration, tubule, Total Incidence: M
Protocol: The tissues in the Table 2 were preserved in 10% neutral phosphate-buffered formalin. Bilateral eyes, optic nerves, testes, epididymides and Harderian glands were fixed in modified Davidson’s solution. For all the above tissues in all groups, sampling, paraffin embedding, sectioning and hematoxylin-eosin staining was performed, followed by histopathology examination microscopically with light microscopy.

[2] = test system: µ-opioid receptor (MOR); design: method as in Yang et al., 2022; conditions: ref Yang et al., 2022, cited from earlier work
[3] = test system: Sprague Dawley (SD) rats; test: Clinical chemistry, 4-week subacute toxicity study
[4] = test system: Sprague Dawley (SD) rats; test: Gross necropsy; assay type: in vivo, rat; conditions: end of dosing phase and recovery phase
Protocol: Complete gross necropsies were conducted on all surviving animals at the end of treatment (the day after the last dosing) and recovery periods. The following selected organs were weighed and evaluated in terms of organ/body or organ/brain weight ratios: brain, kidneys, adrenals, testes, ovaries, uterus, epididymides, thymus, spleen, heart and liver. Paired organs were weighed together. Organ-to-body weight ratio = Organ weight(g)/Body weight(g) × 100%, and Organ-to-brain weight ratio = Organ weight(g)/Brain weight(g) × 100%.

[5] = test system: rats; test: Spontaneous withdrawal test in rats; assay type: in vivo, rat; conditions: iv 0.3 to 1.8 mg/kg/day for 30 consecutive days; data not shown
Protocol: However, we have conducted the spontaneous withdrawal test in rats in 2019 at WCFP (data not shown in this manuscript). The rats were intravenously injected with LPM3480392 injection from 0.3 to 1.8 mg/kg/day for 30 consecutive days. […] There were no apparent abnormalities in body weights of female rats in LPM3480392 injection groups during dosing and recovery phases. The effects of LPM3480392 on body weight in males or females in the spontaneous withdrawal test are similar to those in the subacute toxicity study in rats.

[6] = 0.6 mg/kg/day, end of dosing phase, 10 examined
[7] = 1.2 mg/kg/day, end of dosing phase, 10 examined
[8] = 2.4 mg/kg/day, end of dosing phase, 9 examined
[9] = female rats, 0.6 mg/kg/day, End of dosing phase
[10] = female rats, 0.6 mg/kg/day, End of recovery phase
[11] = female rats, 1.2 mg/kg/day, End of dosing phase
[12] = female rats, 1.2 mg/kg/day, End of recovery phase
[13] = female rats, 2.4 mg/kg/day, End of dosing phase
[14] = female rats, 2.4 mg/kg/day, End of recovery phase
[15] = male rats, 0.6 mg/kg/day, End of dosing phase
[16] = male rats, 0.6 mg/kg/day, End of recovery phase
[17] = male rats, 1.2 mg/kg/day, End of dosing phase
[18] = male rats, 1.2 mg/kg/day, End of recovery phase
[19] = male rats, 2.4 mg/kg/day, End of dosing phase
[20] = male rats, 2.4 mg/kg/day, End of recovery phase

In the case of `Fc1ccc([C@]2(CCNCc3cccc(Cl)c3)CCO[C@]3(CCOC3)C2)nc1` [LPM3480392], the “Epididymis: Cell debris, lumen, Grade: 1 (minimal), animals” value (“Epididymis … (minimal), animals” below) [1, 6] is reported as 0, the “Epididymis: Cell debris, lumen, Grade: 3 (moderate), animals” value (shortened to “Epididymis … (moderate), animals”) [1, 6] is reported as 0 and the “Epididymis: Cell debris, lumen, Total Incidence” value [1, 6] is reported as 0. For the same compound, the “Epididymis: Sperm, decreased, lumen, Grade: 4 (marked), animals” value (from here on “Epididymis: Sperm, decreased … animals”) [1, 6] was 0, the “Epididymis: Sperm, decreased, lumen, Total Incidence” value [1, 6] was 0 and the “Testis: Degeneration, tubule, Grade: 2 (mild), animals” value (“Testis: Degeneration, tubule, Grade” for short) [1, 6] was 0. For the same compound, the “Testis: Degeneration, tubule, Total Incidence” value (from here on “Testis … Total Incidence”) [1, 6] was 0, the “Epididymis … (minimal), animals” value [1, 7] was 0 and the “Epididymis … (moderate), animals” value [1, 7] was 0. The “Epididymis: Cell debris, lumen, Total Incidence” value [1, 7] was 0, the “Epididymis: Sperm, decreased … animals” value [1, 7] was 0 and the “Epididymis: Sperm, decreased, lumen, Total Incidence” value [1, 7] was 0. For the same compound, the “Testis: Degeneration, tubule, Grade” value [1, 7] was 0, the “Testis … Total Incidence” value [1, 7] was 0 and the “Epididymis … (minimal), animals” value [1, 8] was 1. The “Epididymis … (moderate), animals” value [1, 8] was 1, the “Epididymis: Cell debris, lumen, Total Incidence” value [1, 8] was 2 and the “Epididymis: Sperm, decreased … animals” value [1, 8] was 1. For the same compound, the “Epididymis: Sperm, decreased, lumen, Total Incidence” value [1, 8] was 1, the “Testis: Degeneration, tubule, Grade” value [1, 8] was 1 and the “Testis … Total Incidence” value [1, 8] was 1. The “Microscopic changes in brain, heart, liver, spleen, lungs, kidney, adrenal gland, thymus, lymph node, gastrointestinal tract” value ([1]; end of dosing phase and recovery phase) was “no microscopic changes”, the “Mild tubular degeneration of the testis, incidence” value ([1]; males, 2.4 mg/kg/day, end of dosing phase) was 1/9 and the “Emax, in vitro biased agonism” value [2] was 91.4%. For the same compound, the EC50 ([2]; read-out: EC50, in vitro biased agonism) was 0.35 nM, the A/G [3, 9] was 3.25 ± 0.35 and the ALB [3, 9] was 43.3 ± 2.6 g/L. The ALP [3, 9] was 87.4 ± 25.6 U/L, the ALT [3, 9] was 24.9 ± 4.2 U/L and the AST [3, 9] was 126.9 ± 16.0 U/L. It also gave a CREA [3, 9] of 27.9 ± 2.4 µmol/L, a GLU [3, 9] of 6.20 ± 0.43 mmol/L and a TBIL [3, 9] of 1.0 ± 0.5 µmol/L. The TG [3, 9] was 0.19 ± 0.05 mmol/L, the TP [3, 9] was 56.7 ± 2.2 g/L and the A/G [3, 10] was 2.68 ± 0.12. The ALB [3, 10] was 46.4 ± 2.4 g/L, the ALP [3, 10] was 60.5 ± 13.8 U/L and the ALT [3, 10] was 29.0 ± 6.6 U/L. For the same compound, the AST [3, 10] was 103.0 ± 8.5 U/L, the CREA [3, 10] was 36.2 ± 3.7 µmol/L and the GLU [3, 10] was 7.01 ± 0.37 mmol/L. The TBIL [3, 10] was 1.1 ± 0.5 µmol/L, the TG [3, 10] was 0.28 ± 0.08 mmol/L and the TP [3, 10] was 63.8 ± 2.6 g/L. It also gave an A/G [3, 11] of 2.70 ± 0.42, an ALB [3, 11] of 40.1 ± 2.0 g/L and an ALP [3, 11] of 95.9 ± 26.3 U/L. For the same compound, the ALT [3, 11] was 28.0 ± 8.0 U/L, the AST [3, 11] was 122.5 ± 16.8 U/L and the CREA [3, 11] was 29.4 ± 2.4 µmol/L. The GLU [3, 11] was 6.44 ± 0.43 mmol/L, the TBIL [3, 11] was 0.7 ± 0.2 µmol/L and the TG [3, 11] was 0.19 ± 0.03 mmol/L. The TP [3, 11] was 55.2 ± 2.1 g/L, the A/G [3, 12] was 2.63 ± 0.37 and the ALB [3, 12] was 47.0 ± 3.5 g/L. The ALP [3, 12] was 51.5 ± 17.8 U/L, the ALT [3, 12] was 29.2 ± 2.7 U/L and the AST [3, 12] was 95.9 ± 16.3 U/L. The CREA [3, 12] was 35.2 ± 1.3 µmol/L, the GLU [3, 12] was 6.80 ± 0.80 mmol/L and the TBIL [3, 12] was 1.2 ± 0.3 µmol/L. For the same compound, the TG [3, 12] was 0.27 ± 0.03 mmol/L, the TP [3, 12] was 65.1 ± 4.0 g/L and the A/G [3, 13] was 2.64 ± 0.37. The ALB [3, 13] was 39.9 ± 1.9 g/L, the ALP [3, 13] was 124.1 ± 41.1 U/L and the ALT [3, 13] was 28.7 ± 4.2 U/L. The AST [3, 13] was 132.4 ± 15.4 U/L, the CREA [3, 13] was 24.4 ± 1.5 µmol/L and the GLU [3, 13] was 6.66 ± 0.45 mmol/L. It also gave a TBIL [3, 13] of 0.7 ± 0.2 µmol/L, a TG [3, 13] of 0.16 ± 0.03 mmol/L and a TP [3, 13] of 55.2 ± 1.4 g/L. It also gave an A/G [3, 14] of 2.55 ± 0.13, an ALB [3, 14] of 45.5 ± 2.1 g/L and an ALP [3, 14] of 59.2 ± 16.1 U/L. It also gave an ALT [3, 14] of 34.0 ± 7.0 U/L, an AST [3, 14] of 105.9 ± 15.9 U/L and a CREA [3, 14] of 32.5 ± 3.1 µmol/L. For the same compound, the GLU [3, 14] was 6.61 ± 0.24 mmol/L, the TBIL [3, 14] was 0.9 ± 0.6 µmol/L and the TG [3, 14] was 0.30 ± 0.06 mmol/L. The TP [3, 14] was 63.4 ± 3.3 g/L, the “Increased AST and GLU and decreased CREA, magnitude” value ([3]; female rats, all LPM3480392 groups) was less than 18% and the “Decreased ALB, magnitude” value ([3]; females, all LPM3480392 groups) was less than 18%. The “Decreased TP, magnitude” value ([3]; females, all LPM3480392 groups) was less than 18%, the A/G [3, 15] was 3.02 ± 0.34 and the ALB [3, 15] was 39.8 ± 2.0 g/L. The GLU [3, 15] was 5.90 ± 0.48 mmol/L, the TG [3, 15] was 0.21 ± 0.06 mmol/L and the TP [3, 15] was 53.0 ± 2.3 g/L. It also gave an A/G [3, 16] of 2.10 ± 0.18, an ALB [3, 16] of 37.4 ± 0.4 g/L and a GLU [3, 16] of 7.26 ± 0.55 mmol/L. The TG [3, 16] was 0.26 ± 0.16 mmol/L, the TP [3, 16] was 55.2 ± 1.7 g/L and the A/G [3, 17] was 3.03 ± 0.37. It also gave an ALB [3, 17] of 38.4 ± 2.0 g/L, a GLU [3, 17] of 6.39 ± 0.32 mmol/L and a TG [3, 17] of 0.19 ± 0.05 mmol/L. The TP [3, 17] was 51.3 ± 2.3 g/L, the A/G [3, 18] was 2.05 ± 0.08 and the ALB [3, 18] was 36.6 ± 0.8 g/L. For the same compound, the GLU [3, 18] was 6.64 ± 0.99 mmol/L, the TG [3, 18] was 0.33 ± 0.12 mmol/L and the TP [3, 18] was 54.5 ± 0.6 g/L. The A/G [3, 19] was 2.94 ± 0.30, the ALB [3, 19] was 38.0 ± 1.6 g/L and the GLU [3, 19] was 6.76 ± 0.56 mmol/L. It also gave a TG [3, 19] of 0.17 ± 0.05 mmol/L, a TP [3, 19] of 51.0 ± 1.4 g/L and an A/G [3, 20] of 2.25 ± 0.27. The ALB [3, 20] was 37.7 ± 0.7 g/L, the GLU [3, 20] was 6.53 ± 0.83 mmol/L and the TG [3, 20] was 0.31 ± 0.12 mmol/L. The TP [3, 20] was 54.6 ± 1.7 g/L, the “Decreased ALB, magnitude” value ([3]; males, all LPM3480392 groups) was less than 10% and the “Decreased GLU, magnitude” value ([3]; males, all LPM3480392 groups) was less than 20%. For the same compound, the “Decreased TG, magnitude” value ([3]; males, all LPM3480392 groups) was less than 49%, the “Decreased TP, magnitude” value ([3]; males, all LPM3480392 groups) was less than 10% and the “Gross necropsy findings in main organs” value [4] was “no LPM3480392-related abnormalities”. For the same compound, the “Physical dependence after spontaneous withdrawal” value [5] was “Physical dependence was induced” and the “Withdrawal behaviours reversed to normal, Recovery day” value [5] was 6.
